From BindingDB's records for doi:10.1021/jm020901d (Eli Lilly, 2002)

Target: T1, Glutamate racemase (Limosilactobacillus fermentum, UniProt Q03469)
T1 sequence (Q03469 whole entry): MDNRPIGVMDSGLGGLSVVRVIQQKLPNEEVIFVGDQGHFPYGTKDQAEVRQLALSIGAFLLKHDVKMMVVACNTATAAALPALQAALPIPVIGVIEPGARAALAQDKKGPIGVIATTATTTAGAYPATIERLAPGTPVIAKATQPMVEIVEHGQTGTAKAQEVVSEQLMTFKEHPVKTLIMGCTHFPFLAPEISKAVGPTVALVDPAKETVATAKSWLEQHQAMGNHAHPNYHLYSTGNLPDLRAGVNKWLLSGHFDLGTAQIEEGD
Assay: Binding affinity against Glutamate Racemase

N[C@H](C[C@H](Cc1ccc2ccccc2c1)C(=O)O)C(=O)O [2-Amino-4-naphthalen-2-ylmethyl-pentanedioic acid]
Ki: 16 nM
